Results reported in patent publication US12629363B2, “Prophylaxis and treatment of angioedema” (PHARVARIS GMBH, priority 2020, dated 2026).
Where two headings read alike, the source gives them in different places.

How the values were obtained:
human B2 receptor = target: T1, human B2 receptor (Homo sapiens, UniProt P30411); experiment: Antagonist potency in cells expressing human B2 receptor; type: cell-based
T1 sequence (P30411 1-391): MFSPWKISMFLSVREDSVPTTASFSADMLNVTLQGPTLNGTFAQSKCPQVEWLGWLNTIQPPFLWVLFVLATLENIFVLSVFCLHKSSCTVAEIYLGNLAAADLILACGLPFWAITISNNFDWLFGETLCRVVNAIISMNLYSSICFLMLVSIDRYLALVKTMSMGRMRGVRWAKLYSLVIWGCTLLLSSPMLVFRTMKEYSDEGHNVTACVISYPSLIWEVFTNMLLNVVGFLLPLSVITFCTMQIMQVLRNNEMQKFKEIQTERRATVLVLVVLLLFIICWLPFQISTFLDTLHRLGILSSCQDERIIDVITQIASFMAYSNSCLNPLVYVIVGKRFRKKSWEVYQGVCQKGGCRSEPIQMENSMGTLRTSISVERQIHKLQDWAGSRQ
Source text: The bradykinin B2 receptor is well known for its species selective pharmacology (Paquet et al., Br. J. Pharmacol. (126), 1083-1090, 1999 (DOI: 10.1038/sj.bjp.0702403); Burgess et al., Br. J. Pharmacol. (129), 77-86, 2000 (DOI: 10.1038/sj.bjp.0703012)). […] Pharmacol. 11:916; DOI: 10.3389/fphar.2020.00916.

BK B2 receptor = target: T2, BK B2 receptor (Homo sapiens, UniProt P30411); experiment: Bradykinin challenge study, PK/PD (Example 3); type: in vivo; details: for Time plasma level above EC85 at a 75% confidence level / Time plasma level above EC85 at a 75% confidence level, DBP / Time plasma level above EC85 at a 75% confidence level, MAP: modeling and simulation
T2 sequence (P30411 1-391): T1 sequence (P30411 1-391)
Procedure: The compound (12 and 22 mg) was administered orally (p.o.) to 16 healthy volunteers. BK was injected intravenously prior to oral administration of the compound, i.e. BK predosing challenge, and at 1, 4, 8, 12 and 24 hours after oral administration (dosing) of the 12 and 22 mg single dose, respectively. BK injections were administered to induce cardiovascular responses in the volunteers. The cardiovascular responses were monitored, and blood samples were drawn over 24 hours for PK assessment. The PD outcome variables were measured from 5 min before until 5 min after each BK bolus. A % inhibition-of-the-baseline average-to-peak effect was calculated and used as the PD outcome.
Immediately after BK injection a short-lived change in blood pressure, heart rate and cardiac output can be recorded.
PK was analyzed using a two-compartment body model with first-order oral absorption and a lag time; results are shown in Table 4. For the PK/PD model a simple Emax-model with a direct link was utilized. The PK/PD model was used to simulate PK profiles (N=1000) and calculate probability of durations of effect as well as to visualize effect-time profiles; see FIGS. 4 and 5.

clinical = details: human, in vivo, po, 12 mg
Procedure: On Days 4 to 8, subjects received once daily oral doses of 200 mg itraconazole one hour before start of a standard meal.
Trough plasma concentrations of itraconazole were determined by taking predose plasma samples on Days 4-7, to document exposure to itraconazole.

[1] = Drug-drug interaction trial with itraconazole, safety and tolerability (Example 5); type: in vivo, human; details: single 12 mg oral doses on Day 1 and Day 7 (with itraconazole)
Source text: Thirteen healthy subjects were enrolled and completed the study.

[2] = Single ascending dose study in healthy volunteers, plasma PK (Example 2); type: in vivo, human; details: for Tmax: 1 mg to 22 mg, fasting
[3] = plasma concentration, PD in BK challenge
[4] = 22 mg, HCHF breakfast vs fasted
[5] = human, plasma, oral, 1 mg, fasted, mean

SMILES: [2H][C@@](C)(NC(=O)COC(F)F)c1cc(F)cc(Cl)c1COc1cccc2c(-c3ncnn3C)cc(C)nc12 [compound of formula (I)]
- times more potent at human B2 receptor than icatibant (human B2 receptor): about 20 times
- intrinsic agonist activity (human B2 receptor; B2 receptor): devoid of intrinsic agonist activity
- Kb (human B2 receptor; human B2 receptor, read-out: Kb value to antagonize BK activation): 0.15 nM
- antagonist potency at recombinant human B2 receptors (human B2 receptor; recombinant): 0.15 nM
- time stayed above EC85 (BK B2 receptor; 12 mg oral dose): 7 h
- Time plasma level above EC85 at a 75% confidence level (BK B2 receptor; 12 mg p.o.): 6.5 h
- Time plasma level above EC85 at a 75% confidence level, DBP (BK B2 receptor; 12 mg p.o.): 7.5 h
- Time plasma level above EC85 at a 75% confidence level, MAP (BK B2 receptor; 12 mg p.o.): 7 h
- duration of effect relative to the 12 mg dose (BK B2 receptor; 22 mg oral dose): approximately twice as long
- Time plasma level above EC85 at a 75% confidence level (BK B2 receptor; 22 mg p.o.): 9.5 h
- Time plasma level above EC85 at a 75% confidence level, DBP (BK B2 receptor; 22 mg p.o.): 10 h
- Time plasma level above EC85 at a 75% confidence level, MAP (BK B2 receptor; 22 mg p.o.): 10 h
- potency relative to icatibant based on plasma concentrations (BK B2 receptor; BK challenge EC50/EC85): approximately four-fold more potent than icatibant
- EC50 (BK B2 receptor; corrected for plasma protein binding 96.2%, read-out: free plasma concentration associated with EC50 of 2.4 ng/ml): 0.17 nM
- intrinsic PD potency at the K B2 receptor, fold higher than icatibant (BK B2 receptor; in vivo): about 25 fold
- Estimated EC85, Cardiac output (BK B2 receptor; [3]): 0.00952 µg/mL
- Estimated EC85, Composite average (BK B2 receptor; [3]): 0.0138 µg/mL
- Estimated EC85, Diastolic blood pressure (BK B2 receptor; [3]): 0.01326 µg/mL
- Estimated EC85, Heart rate (BK B2 receptor; [3]): 0.0187 µg/mL
- EC50 (BK B2 receptor; plasma concentration, PD in BK challenge, read-out: Estimated EC50, Cardiac output (converted)): 3.14 nM
- EC50 (BK B2 receptor; plasma concentration, PD in BK challenge, read-out: Estimated EC50, Composite average (converted)): 4.49 nM
- EC50 (BK B2 receptor; plasma concentration, PD in BK challenge, read-out: Estimated EC50, Diastolic blood pressure (converted)): 4.37 nM
- EC50 (BK B2 receptor; plasma concentration, PD in BK challenge, read-out: Estimated EC50, Heart rate (converted)): 6.17 nM
- Tmax (clinical): 0.5 to 1 h
- half-life (clinical): 4.31 h
- tolerability [1]: well tolerated with no related adverse events reported
- CL/F ([2]; 1 mg, fasted, mean): 42.3 L/h
- CL/F ([2]; 2 mg, fasted, mean): 33.8 L/h
- CL/F ([2]; 4.5 mg, fasted, mean): 37.6 L/h
- CL/F ([2]; 12 mg, fasted, mean): 40.9 L/h
- time therapeutically effective plasma levels maintained ([2]; 22 mg, HCHF breakfast cohort): more than 12 h
- time to reach therapeutically effective plasma levels ([2]; 22 mg, HCHF breakfast cohort): ≤ 15 min
- higher AUClast after HCHF breakfast [2, 4]: 49%
- lower Cmax after HCHF breakfast [2, 4]: 32%
- CL/F ([2]; 22 mg, after HCHF breakfast, mean): 25.3 L/h
- Mean (±SD) C12h ([2]; 22 mg, fasted): 8.34 ± 4.24 ng/mL
- Mean C24h ([2]; 22 mg, fasted): 1.12 ± 0.786 ng/mL
- CL/F ([2]; 22 mg, fasted, mean): 31.5 L/h
- time to reach therapeutic efficacious threshold plasma concentration ([2]; all doses): ≤ 15 min
- time plasma levels maintained at therapeutic efficacious threshold ([2]; doses of 12 mg and 22 mg): approximately 12 h
- Tmax ([2]; human, plasma, oral, read-out: Median tmax in the dose range): 0.5 to 1 h
- Tmax ([2]; human, plasma, oral, read-out: range of individual tmax values): 0.25 to 1.02 h
- AUC(0-t) [2, 5]: 33 ng·h/mL
- Cmax [2, 5]: 11.1 ng/mL
- concentration at 0.25 h ([2]; human, plasma, oral, 1 mg, fasted, mean, read-out: C0.25h): 5.99 ng/mL
- concentration at 12 h ([2]; human, plasma, oral, 1 mg, fasted, mean, read-out: C12h): 0.528 ng/mL
- Vd/F ([2]; human, plasma, oral, 1 mg, fasted, mean, read-out: Vz/F): 190 L
